# Results from PubChem BioAssay AID1963986 (Molecular Pharmacology Branch, DTP, NCI, 2024).
# Tested on: 171881-019-R-J1-PDC tumor spheroid viability
# Experiment: Anticancer human tumor 171881-019-R-J1-PDC patient-derived invasive breast carcinoma cell line growth inhibition [PI3K]
# Settings: spheroids with HUVEC and MSC; for IC50: curve of first compound; for viability, T/C: stronger effect = lower value
# Method in brief: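 Stroma-containing spheroids: tumor line, pooled-donor HUVEC, hMSC. Treatments: targeted agents with PI3K inhibitors. Dosing: clinically relevant, half-log spacing, 10 microM ceiling without known Cmax. Read-out: cell viability.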
# [1] = second compound 0.0316 µM, first compound 0.0316 µM
# [2] = second compound 0.0316 µM, first compound 0.1 µM
# [3] = second compound 0.0316 µM, first compound 0.316 µM
# [4] = second compound 0.0316 µM, first compound 1 µM
# [5] = second compound 0.0316 µM, first compound 3.16 µM
# [6] = second compound 0.0316 µM, first compound 10 µM
# [7] = second compound 0.1 µM, first compound 0.0316 µM
# [8] = second compound 0.1 µM, first compound 0.1 µM
# [9] = second compound 0.1 µM, first compound 0.316 µM
# [10] = second compound 0.1 µM, first compound 1 µM
# [11] = second compound 0.1 µM, first compound 3.16 µM
# [12] = second compound 0.1 µM, first compound 10 µM
# [13] = second compound 0.316 µM, first compound 0.0316 µM
# [14] = second compound 0.316 µM, first compound 0.1 µM
# [15] = second compound 0.316 µM, first compound 0.316 µM
# [16] = second compound 0.316 µM, first compound 1 µM
# [17] = second compound 0.316 µM, first compound 3.16 µM
# [18] = second compound 0.316 µM, first compound 10 µM
# [19] = second compound 1 µM, first compound 0.0316 µM
# [20] = second compound 1 µM, first compound 0.1 µM
# [21] = second compound 1 µM, first compound 0.316 µM
# [22] = second compound 1 µM, first compound 1 µM
# [23] = second compound 1 µM, first compound 3.16 µM
# [24] = second compound 1 µM, first compound 10 µM
# [25] = second compound 3.16 µM, first compound 0.0316 µM
# [26] = second compound 3.16 µM, first compound 0.1 µM
# [27] = second compound 3.16 µM, first compound 0.316 µM
# [28] = second compound 3.16 µM, first compound 1 µM
# [29] = second compound 3.16 µM, first compound 3.16 µM
# [30] = second compound 3.16 µM, first compound 10 µM
# [31] = second compound 10 µM, first compound 0.0316 µM
# [32] = second compound 10 µM, first compound 0.1 µM
# [33] = second compound 10 µM, first compound 0.316 µM
# [34] = second compound 10 µM, first compound 1 µM
# [35] = second compound 10 µM, first compound 3.16 µM
# [36] = second compound 10 µM, first compound 10 µM
# 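Also: spheroids exposed to compound for 7 days before viability read.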
# 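For viability, T/C in this document: 100% = DMSO vehicle-treated spheroids.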
smiles,measurement,setting,value
C#Cc1c(F)ccc2cc(O)cc(-c3ncc4c(N5CC6CCC(C5)N6)nc(OCC56CCCN5CC(F)C6)nc4c3F)c12 (stereo unspecified) + CC(Nc1ncnc2nc[nH]c12)c1cc2cccc(Cl)c2c(=O)n1-c1ccccc1,IC50,second compound 0.0316 µM,0.562 µM
same,IC50,second compound 0.1 µM,0.655 µM
same,IC50,second compound 0.316 µM,0.44 µM
same,IC50,second compound 1 µM,0.314 µM
same,IC50,second compound 3.16 µM,0.108 µM
same,IC50,second compound 10 µM,< 0.0316 µM
same,"viability, T/C",[1],89.6%
same,"viability, T/C",[2],78.5%
same,"viability, T/C",[3],54%
same,"viability, T/C",[4],44.5%
same,"viability, T/C",[5],35.7%
same,"viability, T/C",[6],29.4%
same,"viability, T/C",[7],78.6%
same,"viability, T/C",[8],80.1%
same,"viability, T/C",[9],57%
same,"viability, T/C",[10],43.9%
same,"viability, T/C",[11],34.7%
same,"viability, T/C",[12],24.3%
same,"viability, T/C",[13],83.3%
same,"viability, T/C",[14],71%
same,"viability, T/C",[15],51.6%
same,"viability, T/C",[16],41.8%
same,"viability, T/C",[17],29.7%
same,"viability, T/C",[18],23.2%
same,"viability, T/C",[19],76%
same,"viability, T/C",[20],68.8%
same,"viability, T/C",[21],47.9%
same,"viability, T/C",[22],34.3%
same,"viability, T/C",[23],26.6%
same,"viability, T/C",[24],19.7%
same,"viability, T/C",[25],72.2%
same,"viability, T/C",[26],50.1%
same,"viability, T/C",[27],37.1%
same,"viability, T/C",[28],23.9%
same,"viability, T/C",[29],18.2%
same,"viability, T/C",[30],13.4%
same,"viability, T/C",[31],49.8%
same,"viability, T/C",[32],32.6%
same,"viability, T/C",[33],21.5%
same,"viability, T/C",[34],16.9%
same,"viability, T/C",[35],10.3%
same,"viability, T/C",[36],6.78%
C#Cc1c(F)ccc2cc(O)cc(-c3ncc4c(N5CC6CCC(C5)N6)nc(OCC56CCCN5CC(F)C6)nc4c3F)c12 (stereo unspecified) + CC(Nc1ccc2c(c1)OCCn1cc(N3C(=O)OCC3C(F)F)nc1-2)C(N)=O,IC50,second compound 0.00316 µM,0.187 µM
same,IC50,second compound 0.01 µM,0.0996 µM
same,IC50,second compound 0.0316 µM,< 0.0316 µM
same,IC50,second compound 0.1 µM,< 0.0316 µM
same,IC50,second compound 0.316 µM,< 0.0316 µM
same,IC50,second compound 1 µM,< 0.0316 µM
same,"viability, T/C","second compound 0.00316 µM, first compound 0.0316 µM",72.4%
same,"viability, T/C","second compound 0.00316 µM, first compound 0.1 µM",57.1%
same,"viability, T/C","second compound 0.00316 µM, first compound 0.316 µM",44.4%
same,"viability, T/C","second compound 0.00316 µM, first compound 1 µM",32.8%
same,"viability, T/C","second compound 0.00316 µM, first compound 3.16 µM",28.8%
same,"viability, T/C","second compound 0.00316 µM, first compound 10 µM",22%
same,"viability, T/C","second compound 0.01 µM, first compound 0.0316 µM",65%
same,"viability, T/C","second compound 0.01 µM, first compound 0.1 µM",51.7%
same,"viability, T/C","second compound 0.01 µM, first compound 0.316 µM",32%
same,"viability, T/C","second compound 0.01 µM, first compound 1 µM",27.5%
same,"viability, T/C","second compound 0.01 µM, first compound 3.16 µM",22.2%
same,"viability, T/C","second compound 0.01 µM, first compound 10 µM",17.1%
same,"viability, T/C",[1],42.7%
same,"viability, T/C",[2],37.2%
same,"viability, T/C",[3],26.4%
same,"viability, T/C",[4],18.3%
same,"viability, T/C",[5],14.9%
same,"viability, T/C",[6],12.7%
same,"viability, T/C",[7],31.1%
same,"viability, T/C",[8],23.6%
same,"viability, T/C",[9],15.6%
same,"viability, T/C",[10],11.9%
same,"viability, T/C",[11],9.09%
same,"viability, T/C",[12],8.33%
same,"viability, T/C",[13],21.1%
same,"viability, T/C",[14],15.7%
same,"viability, T/C",[15],10.4%
same,"viability, T/C",[16],7.74%
same,"viability, T/C",[17],6.88%
same,"viability, T/C",[18],6.22%
same,"viability, T/C",[19],17.2%
same,"viability, T/C",[20],12.3%
same,"viability, T/C",[21],7.9%
same,"viability, T/C",[22],7.17%
same,"viability, T/C",[23],5.55%
same,"viability, T/C",[24],4.36%
CC(Cn1ccc(-c2ccc(C#N)c(Cl)c2)n1)NC(=O)c1cc(C(C)O)[nH]n1 (stereo unspecified) + CC(Nc1ncnc2nc[nH]c12)c1cc2cccc(Cl)c2c(=O)n1-c1ccccc1,IC50,second compound 0.0316 µM,> 10 µM
same,IC50,second compound 0.1 µM,> 10 µM
same,IC50,second compound 0.316 µM,> 10 µM
same,IC50,second compound 1 µM,> 10 µM
same,IC50,second compound 3.16 µM,> 10 µM
same,IC50,second compound 10 µM,5.12 µM
same,"viability, T/C",[1],85.5%
same,"viability, T/C",[2],85%
same,"viability, T/C",[3],93%
same,"viability, T/C",[4],70.3%
same,"viability, T/C",[5],68.9%
same,"viability, T/C",[6],59.1%
same,"viability, T/C",[7],80.6%
same,"viability, T/C",[8],105%
same,"viability, T/C",[9],87.8%
same,"viability, T/C",[10],77.6%
same,"viability, T/C",[11],81%
same,"viability, T/C",[12],62.1%
same,"viability, T/C",[13],96.3%
same,"viability, T/C",[14],94.9%
same,"viability, T/C",[15],88.5%
same,"viability, T/C",[16],91.2%
same,"viability, T/C",[17],82%
same,"viability, T/C",[18],66.7%
same,"viability, T/C",[19],104%
same,"viability, T/C",[20],93.8%
same,"viability, T/C",[21],87.8%
same,"viability, T/C",[22],94.9%
same,"viability, T/C",[23],92%
same,"viability, T/C",[24],64.7%
same,"viability, T/C",[25],86.7%
same,"viability, T/C",[26],93.4%
same,"viability, T/C",[27],83.6%
same,"viability, T/C",[28],82.8%
same,"viability, T/C",[29],85%
same,"viability, T/C",[30],58.9%
same,"viability, T/C",[31],60.3%
same,"viability, T/C",[32],59.5%
same,"viability, T/C",[33],55.9%
same,"viability, T/C",[34],56.2%
same,"viability, T/C",[35],57.4%
same,"viability, T/C",[36],40.1%
